Assay results published in patent US12297164B2, “Benzidine compound and application thereof” (Guangzhou IMD therapeutics Co., Ltd., priority 2019, dated 2025).

Columns and labels:
[1] = biological target: T1, RORγ (Homo sapiens (Human), UniProt P51449); test: AlphaScreen inhibitory activity on RORγ protein; format: biochemical; details: RORγ 200 nM, bSRC1-4 50 nM
Experimental: Experimental materials: target protein RORγ with the final concentration of 200 nM; experimental buffer (10×) MOPS (500 mM) PH 7.4, CHAPS (0.5 mM), NaF (500 mM), and
The mixture was centrifuged at room temperature at 1000 rpm for 1 minute to make the system fully mixed. After being wrapped in tin foil, the mixture was incubated in the dark for 1.5 hours.
Target sequence in this assay (P51449 whole entry): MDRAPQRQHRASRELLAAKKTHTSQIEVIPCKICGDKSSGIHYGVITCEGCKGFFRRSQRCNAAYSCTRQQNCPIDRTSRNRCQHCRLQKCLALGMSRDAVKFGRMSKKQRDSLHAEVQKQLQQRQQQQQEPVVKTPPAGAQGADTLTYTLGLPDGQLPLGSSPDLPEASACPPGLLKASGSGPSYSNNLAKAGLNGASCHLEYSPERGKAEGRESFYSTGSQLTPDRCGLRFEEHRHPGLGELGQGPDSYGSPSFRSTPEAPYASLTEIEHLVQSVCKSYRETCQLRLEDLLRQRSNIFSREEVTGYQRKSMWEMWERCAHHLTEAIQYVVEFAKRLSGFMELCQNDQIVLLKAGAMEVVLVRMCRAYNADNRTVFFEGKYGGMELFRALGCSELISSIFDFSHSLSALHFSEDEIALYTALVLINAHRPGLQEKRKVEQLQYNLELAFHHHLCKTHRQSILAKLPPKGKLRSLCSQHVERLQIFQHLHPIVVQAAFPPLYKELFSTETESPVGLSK

[2] = biological target: T1, RORγ; test: Luciferase double reporter gene assay (Gal4-RORγLBD) in 293T cells; format: cell-based; details: 24 hours of incubation
Experimental: The cells were cultured in a 96-well plate one day before transfection, with a cell density of 1.5×10^4 cells/well. After 24 hours of adherent growth, the cells were subjected to transient transfection by using the method of double reporter gene co-transfection with the transfection reagent of Lipo-fectamine 2000, where the transfection reagent and plasmids were diluted with Opti-MEM reagent, respectively. […] Each sample had 3 duplicate wells.
Target sequence in this assay (P51449 269-508): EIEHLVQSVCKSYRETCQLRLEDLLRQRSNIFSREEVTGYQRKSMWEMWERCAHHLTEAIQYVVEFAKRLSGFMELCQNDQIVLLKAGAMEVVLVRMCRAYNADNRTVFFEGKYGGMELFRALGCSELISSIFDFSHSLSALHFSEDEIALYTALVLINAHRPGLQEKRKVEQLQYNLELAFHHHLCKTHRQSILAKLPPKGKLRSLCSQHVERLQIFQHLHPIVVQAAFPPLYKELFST

[3] = biological target: T1, RORγ; test: TSA detection (thermal shift); format: binding; details: protein 10 μM
Experimental: Experimental materials: hRORγ protein, fluorescent dye Sypro Orange, 10p buffer, ultrapure water, and HSP-96 well reaction plates.
Experimental method: The diluted protein (with the final concentration of 10 μM), fluorescent dye (with the final concentration of 5×), 10× TSA buffer, and double distilled water were prepared into a mixed solution with final component volumes of 1 μL, 1 μL, 1 μL, and 2 μL, receptively. The mixed solution was transferred to an HSP-96 well reaction plate, 5 μL each well. The ligand, i.e., small molecule compound, was added, 5 μL per well, with the final concentration of 200 µM. The mixture was centrifuged at room temperature at 1000 rpm for 1 minute to make the system fully mixed. The mixture was placed on an ice bath in low light for more than 30 minutes, and after that, put into RT-PCR instrument for testing. The temperature was set from 30° C. to 80° C., and the mixture was detected every time the temperature was raised by 0.5° C. and every 5 seconds.
Target sequence in this assay (P51449 whole entry): as the sequence (P51449 whole entry) above

[4] = test system: 293T (human renal epithelial cell line transfected with adenovirus E1A gene, expressing SV40 large T antigen); test: Cell-Titer GLO cell inhibition; format: cell-based; details: 293T
Experimental: (§1) Experimental materials: fluorescence signal detection instrument: EnSpire Alpha 2390 multifunctional microplate reader (produced by Perkin Elmer Company); 384-well bottom permeable microwell plate; Cell-Titer GLO luminescent reagent; cancer cells to be tested; medium and fetal bovine serum required for cell culture.
(§2) […]. After incubation with the compound for 72 to 144 hours, Cell-Titer GLO reagent 25-T was added to each well, and the plate was shaken for 20 minutes to lyse the cells. After incubation for 10 minutes, the cells were centrifuged for 1 minute, the signal value of luminescence 384 was measured. The inhibition curve was fitted by GraphPad Prism software to obtain IC50.

[5] = test system: A549 (non-small cell lung cancer); test: Cell-Titer GLO cell inhibition; format: cell-based
Experimental: as §1, §2

[6] = test system: Cos7 (African green monkey kidney cells); test: Cell-Titer GLO cell inhibition; format: cell-based; details: Cos7; read-out: IC50
Experimental: as §1, §2

[7] = test system: H1975 (lung cancer cells); test: Cell-Titer GLO cell inhibition; format: cell-based; details: H1975
Experimental: as §1, §2

[8] = test system: HFL-1 (lung fibroblasts); test: Cell-Titer GLO cell inhibition; format: cell-based; details: HFL-1; ~ = estimate; read-out: IC50
Experimental: as §1, §2

[9] = test system: HT-29 (colon cancer); test: Cell-Titer GLO cell inhibition; format: cell-based; details: read-out: IC50
Experimental: as §1, §2

[10] = test system: Hs578T (triple negative breast cancer); test: Cell-Titer GLO cell inhibition; format: cell-based; details: Hs578T
Experimental: as §1, §2

[11] = test system: MCF-7 (ER + breast cancer); test: Cell-Titer GLO cell inhibition; format: cell-based; details: MCF-7
Experimental: as §1, §2

[12] = test system: MV-4-11 (acute leukemia); test: Cell-Titer GLO cell inhibition; format: cell-based; details: MV-4-11; read-out: IC50
Experimental: as §1, §2

[13] = test system: U2OS (osteosarcoma); test: Cell-Titer GLO cell inhibition; format: cell-based
Experimental: as §1, §2

[14] = test system: VcaP (AR-positive prostate cancer); test: Cell-Titer GLO cell inhibition; format: cell-based; details: VcaP; 72 to 144 hours; read-out: IC50
Experimental: as §1, §2

[15] = test system: C4-2B (AR-positive prostate cancer); test: Cell-Titer GLO cell inhibition; format: cell-based; details: 72 to 144 hours
Text: (§3) The inhibition curve was fitted by GraphPad Prism software to obtain IC50.

[16] = test system: Du145 (AR-negative prostate cancer); test: Cell-Titer GLO cell inhibition; format: cell-based; details: Du145
Text: as §3

Question: What does the source list for `Nc1ccc(CC(=O)Nc2ccc(-c3ccc(C(O)(C(F)(F)F)C(F)(F)F)cc3F)cc2)cc1` [Example 5, 2-(4-aminophenyl)-N-(2′-fluoro-4′-(1,1,1,3,3,3-hexafluoro-2-hydroxypropan-2-yl)-[1,1′-biphenyl]-4-yl)acetamide]?
Answer: IC50 [1]: 2.68 µM; IC50 [2]: 4.16 µM; ΔTm [3]: 1.5 °C

Question: For `O=C(Cc1ccc([N+](=O)[O-])cc1)Nc1ccc(-c2ccc(C(O)(C(F)(F)F)C(F)(F)F)cc2F)cc1` [Example 3, N-(2′-fluoro-4′-(1,1,1,3,3,3-hexafluoro-2-hydroxypropan-2-yl)-[1,1′-biphenyl]-4-yl)-2-(4-nitrophenyl)acetamide], which IC50 [1] is on record?
Answer: 4.85 ± 0.04 µM

Question: And the IC50 [2]?
Answer: 1.49 µM

Question: What about the ΔTm [3] of the same compound?
Answer: 6 °C

Question: `OC(c1ccc(-c2ccc(CN3CCN(Cc4ccncc4)CC3)cc2)c(F)c1)(C(F)(F)F)C(F)(F)F` [SR2211, reference compound] was tested. Which “inhibition rate (value in brackets)” value [4] did it give?
Answer: 67%

Question: And the IC50 ([4]; ~ = estimate, read-out: IC50)?
Answer: ~80 µM

Question: What about the “inhibition rate (value in brackets)” value [5] of the same compound?
Answer: 55%

Question: And the IC50 ([5]; ~ = estimate, read-out: IC50)?
Answer: ~10 µM

Question: What about the IC50 [6] of the same compound?
Answer: > 100 µM

Question: And the “inhibition rate (value in brackets)” value [7]?
Answer: 41%

Question: And the IC50 ([7]; read-out: IC50)?
Answer: 30.7 µM

Question: And the IC50 [8]?
Answer: > 50 µM

Question: And the IC50 [9]?
Answer: > 50 µM

Question: And the “inhibition rate (value in brackets)” value [10]?
Answer: ~50%

Question: And the IC50 ([10]; ~ = estimate, read-out: IC50)?
Answer: ~10 µM

Question: What about the “inhibition rate (value in brackets)” value [11] of the same compound?
Answer: 42%

Question: What about the IC50 ([11]; ~ = estimate, read-out: IC50) of the same compound?
Answer: ~9.98 µM

Question: And the IC50 [12]?
Answer: 11.5 µM

Question: What about the “inhibition rate (value in brackets)” value [13] of the same compound?
Answer: 52%

Question: What about the IC50 ([13]; ~ = estimate, read-out: IC50) of the same compound?
Answer: ~10 µM

Question: And the IC50 [14]?
Answer: 37.6 µM

Question: What about the IC50 [15] of the same compound?
Answer: 10.1 µM

Question: What about the “inhibition rate (value in brackets)” value [16] of the same compound?
Answer: ~50%

Question: And the IC50 ([16]; 72 to 144 hours, ~ = estimate, read-out: IC50)?
Answer: ~10 µM

Question: What does the source list for `Nc1ccccc1CC(=O)Nc1ccc(-c2ccc(C(O)(C(F)(F)F)C(F)(F)F)cc2F)cc1` [Example 6, 2-(2-aminophenyl)-N-(2′-fluoro-4′-(1,1,1,3,3,3-hexafluoro-2-hydroxypropan-2-yl)-[1,1′-biphenyl]-4-yl)acetamide]?
Answer: IC50 [1]: 5.17 µM; IC50 [2]: 0.96 µM; ΔTm [3]: 1.5 °C
